Among the data in ChEMBL document CHEMBL4610099, “Galtonosides A-E: Antiproliferative and Antiplasmodial Cholestane Glycosides from Galtonia regalis” (J Nat Prod, 2020) are IC50 and Activity values, retold here.

Active and inactive are the calls of the source. The rule behind the calls is not given here.

Data set [1] deals with Plasmodium falciparum. The experiment in a line: Antiplasmodial activity against ring stage Plasmodium falciparum Dd2 assessed as reduction in parasite growth after 72 hrs by SYBR Green 1 staining based assay. In kind it is functional, organism-based. As to conditions: Dd2, 72 h.
Data set [2] has as its system Erythrocyte. Briefly: Hemolytic activity against human erythrocytes infected with ring stage Plasmodium falciparum Dd2 assessed as morphological changes at 11 uM up to 72 hrs by Giemsa-staining based light microscopic analysis. In kind it is ADME, cell-based.
A further data set deals with A2780. The experiment in a line: Antiproliferative activity against human A2780 cells assessed as reduction in cell viability after 2 days hrs by AlamarBlue assay. In kind it is functional, cell-based. The conditions noted are these: A2780, 48 h.
In data set [3] the test system is Erythrocyte. The experiment in a line: Hemolytic activity against human erythrocytes assessed as morphological changes at IC50 concentration up to 72 hrs. The format is ADME, cell-based.
Data set [4] concerns Plasmodium falciparum. The experiment in a line: Antiplasmodial activity against ring stage Plasmodium falciparum Dd2 infected in human erythrocytes assessed as reduction in trophozoites formation at 11 uM up to 72 hrs by Giemsa-staining based light microscopic analysis. The format is functional, organism-based.
The subject of data set [5] is Erythrocyte. Briefly: Hemolytic activity against human erythrocytes infected with ring stage Plasmodium falciparum Dd2 assessed as reduction in cell viability at 11 uM up to 72 hrs by Giemsa-staining based light microscopic analysis.
Data set [6] has as its system Erythrocyte. Briefly: Hemolytic activity against human erythrocytes infected with ring stage Plasmodium falciparum Dd2 assessed as morphological changes at IC50 concentration up to 72 hrs. The format is ADME, cell-based.
Data set [7] has as its system Plasmodium falciparum. The experiment in a line: Antiplasmodial activity against ring stage Plasmodium falciparum Dd2 infected in human erythrocytes assessed as reduction in trophozoites formation at 3 uM up to 72 hrs by Giemsa-staining based light microscopic analysis. In kind it is functional, organism-based.
Data set [8] concerns Erythrocyte. The experiment in a line: Hemolytic activity against human erythrocytes infected with ring stage Plasmodium falciparum Dd2 assessed as reduction in cell viability at 3 uM up to 72 hrs by Giemsa-staining based light microscopic analysis.
Data set [9] concerns Erythrocyte. Briefly: Hemolytic activity against human erythrocytes infected with ring stage Plasmodium falciparum Dd2 assessed as morphological changes at 3 uM up to 72 hrs by Giemsa-staining based light microscopic analysis. In kind it is ADME, cell-based.
For data set [10], the system named is Erythrocyte. The experiment in a line: Hemolytic activity against human erythrocytes infected with ring stage Plasmodium falciparum Dd2 assessed as reduction in cell viability at 6 uM up to 72 hrs by Giemsa-staining based light microscopic analysis.
In data set [11] the test system is Plasmodium falciparum. Briefly: Antiplasmodial activity against ring stage Plasmodium falciparum Dd2 infected in human erythrocytes assessed as reduction in trophozoites formation at 6 uM up to 72 hrs by Giemsa-staining based light microscopic analysis. In kind it is functional, organism-based.
Data set [12] concerns Erythrocyte. The experiment in a line: Hemolytic activity against human erythrocytes infected with ring stage Plasmodium falciparum Dd2 assessed as morphological changes at 6 uM up to 72 hrs by Giemsa-staining based light microscopic analysis. In kind it is ADME, cell-based.

Turning to `COc1ccc(C(=O)O[C@H]2[C@H](O[C@@H]3[C@@H](OC(C)=O)[C@H](O[C@H]4C[C@H]5[C@@H]6CC=C7C[C@@H](O)CC[C@]7(C)[C@H]6CC[C@]5(C)[C@H]4[C@H](C)C(=O)CCC(C)C)OC[C@@H]3O)OC[C@@H](O)[C@@H]2O)cc1OC`, the IC50 is 630 nM with Plasmodium falciparum [1] and 100 nM in the data set with A2780. Besides, the Activity result in the data set on Erythrocyte [2], in the data set on Erythrocyte [3], with Erythrocyte [5] and in the data set with Erythrocyte [6] was “Non-Toxic” in each case. For the same compound, the outcome with Plasmodium falciparum [4] was Active.

Turning to `COc1cc(C(=O)O[C@H]2[C@H](O[C@@H]3[C@@H](OC(C)=O)[C@H](O[C@H]4C[C@H]5[C@@H]6CC=C7C[C@@H](O)CC[C@]7(C)[C@H]6CC[C@]5(C)[C@@]4(O)[C@H](C)C(=O)CCC(C)C)OC[C@@H]3O)OC[C@@H](O)[C@@H]2O)cc(OC)c1OC`, the IC50 with Plasmodium falciparum [1] was found to be 560 nM; with A2780, 90 nM. Moreover, the Activity entry in the data set on Erythrocyte [2], in the data set with Erythrocyte [3], in the data set with Erythrocyte [5] and in the data set with Erythrocyte [6] was “Non-Toxic” in each case. For the same compound, the result with Plasmodium falciparum [4] was Active.

With `COc1ccc(C(=O)O[C@H]2[C@H](O[C@H]3C[C@H]4[C@@H]5CC=C6C[C@@H](O)CC[C@]6(C)[C@H]5CC[C@]4(C)[C@@]3(O)[C@H](C)C(=O)CCC(C)C)OC[C@H](O)[C@@H]2O)cc1OC`, the IC50 was found to be 210 nM in the data set on Plasmodium falciparum [1] and 140 nM in the data set on A2780. Besides, in the data set with Plasmodium falciparum [7], the result was Active. Moreover, the Activity entry with Erythrocyte [3], in the data set with Erythrocyte [8], in the data set with Erythrocyte [6] and in the data set with Erythrocyte [9] was “Non-Toxic” throughout.

As to `CC(=O)O[C@H]1[C@H](O[C@H]2C[C@H]3[C@@H]4CC=C5C[C@@H](O)CC[C@]5(C)[C@H]4CC[C@]3(C)[C@@]2(O)[C@H](C)C(=O)CCC(C)C)OC[C@H](O)[C@@H]1O[C@@H]1OC[C@@H](O)[C@H](O)[C@H]1OC(=O)/C=C/c1ccccc1`, the IC50 with Plasmodium falciparum [1] was 950 nM; with A2780, 100 nM. For the same compound, the Activity result in the data set on Erythrocyte [3] and in the data set on Erythrocyte [6] was “Non-Toxic” in each case.

As for `COc1cc(C(=O)O[C@H]2[C@H](O[C@@H]3[C@@H](OC(C)=O)[C@H](O[C@H]4C[C@H]5[C@@H]6CC=C7C[C@@H](O)CC[C@]7(C)[C@H]6CC[C@]5(C)[C@H]4[C@H](C)C(=O)CCC(C)C)OC[C@@H]3O)OC[C@@H](O)[C@@H]2O)cc(OC)c1OC`, the results for the IC50 in the data set on Plasmodium falciparum [1] and in the data set on A2780 were 610 nM and 100 nM, respectively. The Activity entry in the data set with Erythrocyte [2], with Erythrocyte [3], with Erythrocyte [5] and in the data set on Erythrocyte [6] was “Non-Toxic” in each case. Further, the outcome with Plasmodium falciparum [4] was Active.

As for `COc1ccc(C(=O)O[C@H]2[C@H](O[C@@H]3[C@@H](OC(C)=O)[C@H](O[C@H]4C[C@H]5[C@@H]6CC=C7C[C@@H](O)CC[C@]7(C)[C@H]6CC[C@]5(C)[C@@]4(O)[C@H](C)C(=O)CCC(C)C)OC[C@@H]3O)OC[C@@H](O)[C@@H]2O)cc1OC`, the IC50 in the data set on Plasmodium falciparum [1] amounted to 1510 nM; in the data set with A2780 it was 100 nM. Moreover, the Activity entry in the data set on Erythrocyte [3] and with Erythrocyte [6] was “Non-Toxic” in each case.

In the case of `CC(=O)O[C@H]1[C@H](O[C@H]2C[C@H]3[C@@H]4CC=C5C[C@@H](O)CC[C@]5(C)[C@H]4CC[C@]3(C)[C@H]2[C@H](C)C(=O)CCC(C)C)OC[C@H](O)[C@@H]1O[C@@H]1OC[C@@H](O)[C@H](O)[C@H]1OC(=O)/C=C/c1ccccc1`, the IC50 amounted to 420 nM in the data set on Plasmodium falciparum [1] and 100 nM in the data set on A2780. Further, the Activity entry in the data set on Erythrocyte [10], in the data set on Erythrocyte [3], in the data set on Erythrocyte [6] and with Erythrocyte [12] was “Non-Toxic” throughout. In addition, the result in the data set on Plasmodium falciparum [11] was Active.

Consider `C[C@@H]1CC[C@H]2[C@@H](C)C(=O)O[C@@H]3O[C@@]4(C)CC[C@@H]1[C@]32OO4` [ARTEMISININ], for which, in the data set with Plasmodium falciparum [1], the IC50 came to 6.5 nM.
